# Assay results: patent publication US20220396565A1 (Hoffmann-La Roche Inc., priority 2020, published 2022)
# Counter-ions that a name gives are not always drawn.
# Tested on: Acinetobacter baumannii ATCC17961
# Assay: Antimicrobial susceptibility testing: 90% growth inhibitory concentration (IC90) determination, Iso-Sensitest broth
# Type: cell-based
# Details: Acinetobacter baumannii, ATCC17961, 90% growth inhibitory concentration, Acinetobacter baumannii ATCC17961, Iso-Sensitest broth; read-out: ATCC 17961 IC90
# Outline: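 Growth at OD600 was monitored every 20 min for 16 h at 35±2 °C, with bacteria inoculated at ~5×10^(5) CFU/ml into Iso-Sensitest medium. Compounds were tested as 10-point twofold dilutions (e.g. 10–0.02 μM final). The 90% inhibitory concentration comes from the log-phase growth.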
row,Compound,IC90 [nM]
1,"Cn1c(-c2ccc(OC(F)F)c(F)c2)cnc1C(=O)Nc1ccc(C(=O)N2CCN(C(=O)C[C@@H]3CCCN3)CC2)c(Cl)c1 [Example 181, N-[3-chloro-4-[4-[2-[(2S)-pyrrolidin-2-yl]acetyl]piperazine-1-carbonyl]phenyl]-5-[4-(difluoromethoxy)-3-fluoro-phenyl]-1-methyl-imidazole-2-carboxamide formate]",130
2,"COc1ccc(-c2cnc(C(=O)Nc3ccc(C(=O)N4CCN(C(=O)CC5(O)CCNCC5)CC4)c(Cl)c3)n2C)c(Cl)c1F [Example 182, 5-(2-chloro-3-fluoro-4-methoxy-phenyl)-N-[3-chloro-4-[4-[2-(4-hydroxy-4-piperidyl)acetyl]piperazine-1-carbonyl]phenyl]-1-methyl-imidazole-2-carboxamide formate]",70
3,"CCOc1ccc(-c2cnc(C(=O)Nc3ccc(C(=O)N4CCN(C(=O)CC5(O)CCNCC5)CC4)c(Cl)c3)n2C)c(F)c1F [Example 183, N-[3-chloro-4-[4-[2-(4-hydroxy-4-piperidyl)acetyl]piperazine-1-carbonyl]phenyl]-5-(4-ethoxy-2,3-difluoro-phenyl)-1-methyl-imidazole-2-carboxamide formate]",80
4,"COc1ccc(-c2cnc(C(=O)Nc3ccc(C(=O)N4CCN(C(=O)[C@H]5[C@@H]6CNC[C@@H]65)CC4)c(Cl)c3)n2C)c(F)c1F [Example 184, N-[4-[4-[(1R,5S)-3-azabicyclo[3.1.0]hexane-6-carbonyl]piperazine-1-carbonyl]-3-chloro-phenyl]-5-(2,3-difluoro-4-methoxy-phenyl)-1-methyl-imidazole-2-carboxamide trifluoroacetate]",20
5,"COc1ccc(-c2cnc(C(=O)Nc3ccc(C(=O)N4CCN(C(=O)C5CC(CN)C5)CC4)c(Cl)c3)n2C)c(F)c1F (centres unmarked) [Example 185, N-[4-[4-[3-(aminomethyl)cyclobutanecarbonyl]piperazine-1-carbonyl]-3-chloro-phenyl]-5-(2,3-difluoro-4-methoxy-phenyl)-1-methyl-imidazole-2-carboxamide formate]",60
6,"COc1ccc(-c2cnc(C(=O)Nc3ccc(C(=O)N4C[C@@H]5CN(C(=O)C6CCNCC6)C[C@@H]5C4)c(Cl)c3)n2C)c(F)c1F [Example 186, N-[4-[(3aR,6aS)-5-(piperidine-4-carbonyl)-1,3,3a,4,6,6a-hexahydropyrrolo[3,4-c]pyrrole-2-carbonyl]-3-chloro-phenyl]-5-(2,3-difluoro-4-methoxy-phenyl)-1-methyl-idazole-2-carboxamide formate]",100
7,"COc1ccc(-c2cnc(C(=O)Nc3ccc(C(=O)N4CC(NC(=O)C5CCNCC5)C4)c(Cl)c3)n2C)c(F)c1F [Example 187, N-[1-[2-chloro-4-[[5-(2,3-difluoro-4-methoxy-phenyl)-1-methyl-imidazole-2-carbonyl]amino]benzoyl]azetidin-3-yl]piperidine-4-carboxamide formate]",110
8,"COc1ccc(-c2cnc(C(=O)Nc3ccc(C(=O)N4C[C@@H]5CN(C(=O)[C@@H]6CCNC6)C[C@@H]5C4)c(Cl)c3)n2C)c(F)c1F [Example 188, N-[4-[(3aR,6aS)-5-[(3R)-pyrrolidine-3-carbonyl]-1,3,3a,4,6,6a-hexahydropyrrolo[3,4-c]pyrrole-2-carbonyl]-3-chloro-phenyl]-5-(2,3-difluoro-4-methoxy-phenyl)-1-methyl-imidazole-2-carboxamide formate]",140
9,"COc1ccc(-c2cnc(C(=O)Nc3ccc(C(=O)N4CC(NC(=O)CN(C)C)C4)c(Cl)c3)n2C)c(F)c1F [Example 189, N-[3-chloro-4-[3-[[2-(dimethylamino)acetyl]amino]azetidine-1-carbonyl]phenyl]-5-(2,3-difluoro-4-methoxy-phenyl)-1-methyl-imidazole-2-carboxamide formate]",140
10,"COc1ccc(-c2cnc(C(=O)Nc3ccc(C(=O)N4C[C@H]5CN(C(=O)CN(C)C)C[C@H]5C4)c(Cl)c3)n2C)c(F)c1F [Example 190, N-[4-[(3aS,6aR)-2-[2-(dimethylamino)acetyl]-1,3,3a,4,6,6a-hexahydropyrrolo[3,4-c]pyrrole-5-carbonyl]-3-chloro-phenyl]-5-(2,3-difluoro-4-methoxy-phenyl)-1-methyl-imidazole-2-carboxamide formate]",180
11,"Cn1c(-c2ccc(F)c(F)c2F)cnc1C(=O)Nc1ccc(C(=O)N2CCN(C(=O)C3CCNCC3)CC2)c(Cl)c1 [Example 191, N-[3-chloro-4-[4-(piperidine-4-carbonyl)piperazine-1-carbonyl]phenyl]-1-methyl-5-(2,3,4-trifluorophenyl)imidazole-2-carboxamide formate]",230
12,"COc1ccc(-c2cnc(C(=O)Nc3ccc(C(=O)N4CCN(C(=O)C5CCNCC5)CC4)c(Cl)c3)n2C)cc1C#N [Example 192, N-[3-chloro-4-[4-(piperidine-4-carbonyl)piperazine-1-carbonyl]phenyl]-5-(3-cyano-4-methoxy-phenyl)-1-methyl-imidazole-2-carboxamide formate]",460
13,"Cn1c(-c2ccc(F)c(C#N)c2F)cnc1C(=O)Nc1ccc(C(=O)N2CCN(C(=O)C3CCNCC3)CC2)c(Cl)c1 [Example 193, N-[3-chloro-4-[4-(piperidine-4-carbonyl)piperazine-1-carbonyl]phenyl]-5-(3-cyano-2,4-difluoro-phenyl)-1-methyl-imidazole-2-carboxamide formate]",2590
14,"COc1ccc(-c2cnc(C(=O)Nc3ccc(C(=O)N4CCN(C(=O)C[C@@H]5CCNC5)CC4)c(Cl)c3)n2C)c(F)c1F [Example 194, N-[3-chloro-4-[4-[2-[(3S)-pyrrolidin-3-yl]acetyl]piperazine-1-carbonyl]phenyl]-5-(2,3-difluoro-4-methoxy-phenyl)-1-methyl-imidazole-2-carboxamide formate]",50
15,"COc1ccc(-c2cnc(C(=O)Nc3ccc(C(=O)N4CCC(NC(=O)CN(C)C)CC4)c(Cl)c3)n2C)c(F)c1F [Example 195, N-[3-chloro-4-[4-[[2-(dimethylamino)acetyl]amino]piperidine-1-carbonyl]phenyl]-5-(2,3-difluoro-4-methoxy-phenyl)-1-methyl-imidazole-2-carboxamide]",90
16,"Cn1c(-c2ccc(OCC#N)c(F)c2F)cnc1C(=O)Nc1ccc(C(=O)N2CCN(C(=O)[C@@H]3C[C@H](N)CN3)CC2)c(Cl)c1 [Example 209, N-(4-(4-((2S,4S)-4-aminopyrrolidine-2-carbonyl)piperazine-1-carbonyl)-3-chlorophenyl)-5-(4-(cyanomethoxy)-2,3-difluorophenyl)-1-methyl 1H-imidazole-2-carboxamide]",80
17,"Cn1c(-c2ccc(OCC#N)c(F)c2F)cnc1C(=O)Nc1ccc(C(=O)N2CCN(C(=O)[C@@H]3NCC[C@@H]3O)CC2)c(Cl)c1 [Example 210, N-(3-chloro-4-(4-((2R,3S)-3-hydroxypyrrolidine-2-carbonyl)piperazine-1-carbonyl)phenyl)-5-(4-(cyanomethoxy)-2,3-difluorophenyl)-1-methyl-1H-imidazole-2-carboxamide formate]",60
18,"Cn1c(-c2ccc(OCC#N)c(F)c2F)cnc1C(=O)Nc1ccc(C(=O)N2CCN(C(=O)CN3CC(C(=O)O)C3)CC2)c(Cl)c1 [Example 212, 1-(2-(4-(2-chloro-4-(5-(4-(cyanomethoxy)-2,3-difluorophenyl)-1-methyl-1H-imidazole-2-carboxamido)benzoyl)piperazin-1-yl)-2-oxoethyl)azetidine-3-carboxylic acid 2,2,2-trifluoroacetate]",850
19,"Cn1c(-c2ccc(OCC#N)c(F)c2F)cnc1C(=O)Nc1ccc(C(=O)N2CCN(CCNC(=O)[C@H]3CCCN3)CC2)c(Cl)c1 [Example 213, (R)-N-(3-chloro-4-(4-(2-(pyrrolidine-2-carboxamido)ethyl)piperazine-1-carbonyl)phenyl)-5-(4-(cyanomethoxy)-2,3-difluorophenyl)-1-methyl-1H-imidazole-2-carboxamide 2,2,2-trifluoroacetate]",100
20,"Cn1c(-c2ccc(OCC#N)c(F)c2F)cnc1C(=O)Nc1ccc(C(=O)N2CCN(C(=O)C3CNCC(O)C3)CC2)c(Cl)c1 (centres unmarked) [Example 214, N-(3-chloro-4-(4-(5-hydroxypiperidine-3-carbonyl)piperazine-1-carbonyl)phenyl)-5-(4-(cyanomethoxy)-2,3-difluorophenyl)-1-methyl-1H-imidazole-2-carboxamide 2,2,2-trifluoroacetate]",70
21,"Cn1c(-c2ccc(OCC#N)c(F)c2F)cnc1C(=O)Nc1ccc(C(=O)N2CCN(C(=O)CN3CC[C@@H](C(=O)O)C3)CC2)c(Cl)c1 [Example 215, (R)-1-(2-(4-(2-chloro-4-(5-(4-(cyanomethoxy)-2,3-difluorophenyl)-1-methyl-1H-imidazole-2-carboxamido)benzoyl)piperazin-1-yl)-2-oxoethyl)pyrrolidine-3-carboxylic acid 2,2,2-trifluoroacetic acid]",800

# Same assay, conditions: Acinetobacter baumannii, ATCC17961, read-out: ATCC 17961 IC90
row,Compound,IC90 [nM]
1,"Cn1c(-c2ccc(OCC#N)c(F)c2F)cnc1C(=O)Nc1ccc(C(=O)N2CCN(C(=O)[C@H]3CCCNC3)CC2)c(Cl)c1 [Example 208, (S)-N-(3-chloro-4-(4-(piperidine-3-carbonyl)piperazine-1-carbonyl)phenyl)-5-(4-(cyanomethoxy)-2,3-difluorophenyl)-1-methyl 1H-imidazole-2-carboxamide 2,2,2-trifluoroacetate]",50
2,"Cn1c(-c2ccc(OCC#N)c(F)c2F)cnc1C(=O)Nc1ccc(C(=O)N2CCN(C(=O)[C@@H]3CCCCN3)CC2)c(Cl)c1 [Example 211, (S)-N-(3-chloro-4-(4-(piperidine-2-carbonyl)piperazine-1-carbonyl)phenyl)-5-(4-(cyanomethoxy)-2,3-difluorophenyl)-1-methyl 1H-imidazole-2-carboxamide formate]",50
